System: MV-4-11 cells
Experiment: Gene expression microarray analysis (Affymetrix PrimeView) and GSEA
Format: cell-based, human
Parameters: RFU PODN (11730768_x_at) / Fold change /veh PODN (11730768_x_at) / RFU LINC00158 (11744669_a_at) / Fold change /veh LINC00158 (11744669_a_at) / RFU DUSP10 (11751237_a_at) / Fold change /veh DUSP10 (11751237_a_at) / RFU ID3 (11757404_x_at) / Fold change /veh ID3 (11757404_x_at) / RFU PLEKHG5 (11737974_s_at) / Fold change /veh PLEKHG5 (11737974_s_at) / RFU LRRC4B (11730491_at) / Fold change /veh LRRC4B (11730491_at) / RFU GIMAP4 (11747438_a_at) / Fold change /veh GIMAP4 (11747438_a_at) / RFU KRT8 (11758183_x_at) / Fold change /veh KRT8 (11758183_x_at) / RFU CNN1 (11734310_a_at) / Fold change /veh CNN1 (11734310_a_at) / RFU VPS37D (11726825_at) / Fold change /veh VPS37D (11726825_at) / RFU C10orf10 (11716522_x_at) / Fold change /veh C10orf10 (11716522_x_at) / RFU KIR2DL2 /// KIR2DL4 /// KIR2DL5A /// KIR2DL5B /// KIR2DS1 /// KIR2DS2 /// KIR2DS3 /// KIR2DS4 /// KIR3DL3 /// KIR3DL3 /// KIR3DS1 (11738374_at) / Fold change /veh KIR2DL2 /// KIR2DL4 /// KIR2DL5A /// KIR2DL5B /// KIR2DS1 /// KIR2DS2 /// KIR2DS3 /// KIR2DS4 /// KIR3DL3 /// KIR3DL3 /// KIR3DS1 (11738374_at) / RFU C1QL1 (11718748_at) / Fold change /veh C1QL1 (11718748_at) / RFU TMPRSS4 (11747572_a_at) / Fold change /veh TMPRSS4 (11747572_a_at) / RFU HAMP (11756126_x_at) / Fold change /veh HAMP (11756126_x_at) / RFU RNFT2 (11725882_a_at) / Fold change /veh RNFT2 (11725882_a_at) / RFU NR4A2 (11747474_a_at) / Fold change /veh NR4A2 (11747474_a_at) / RFU ABCC12 (11746883_a_at) / Fold change /veh ABCC12 (11746883_a_at) / RFU TMEM136 (11760407_x_at) / Fold change /veh TMEM136 (11760407_x_at) / RFU CLDN22 /// WWC2 (11732394_at) / Fold change /veh CLDN22 /// WWC2 (11732394_at) / RFU HLA-DPB1 (11760878_x_at) / Fold change /veh HLA-DPB1 (11760878_x_at) / RFU SPINT1 (11716480_a_at) / Fold change /veh SPINT1 (11716480_a_at) / RFU GAP43 (11754022_s_at) / Fold change /veh GAP43 (11754022_s_at) / RFU A4GNT (11735810_at) / Fold change /veh A4GNT (11735810_at) / RFU PRB3 (11715151_x_at) / Fold change /veh PRB3 (11715151_x_at) / RFU TUBB4B (11761932_at) / Fold change /veh TUBB4B (11761932_at) / RFU CAPN14 (11732068_a_at) / Fold change /veh CAPN14 (11732068_a_at) / RFU TMCC2 (11721928_a_at) / Fold change /veh TMCC2 (11721928_a_at) / RFU IRGQ (11745062_a_at) / Fold change /veh IRGQ (11745062_a_at) / RFU FAM174B (11720279_a_at) / Fold change /veh FAM174B (11720279_a_at) / RFU TMPRSS4 (11748680_a_at) / Fold change /veh TMPRSS4 (11748680_a_at) / RFU FAM212B (11763350_a_at) / Fold change /veh FAM212B (11763350_a_at) / RFU PLEKHG5 (11743358_a_at) / Fold change /veh PLEKHG5 (11743358_a_at) / RFU ZSCAN30 (11745921_a_at) / Fold change /veh ZSCAN30 (11745921_a_at) / RFU CMKLR1 (11741424_a_at) / Fold change /veh CMKLR1 (11741424_a_at) / RFU LOC101060620 /// MAPK8IP1 (11723275_at) / Fold change /veh LOC101060620 /// MAPK8IP1 (11723275_at) / RFU SPTSSB (11747773_x_at) / Fold change /veh SPTSSB (11747773_x_at) / RFU PRSS12 (11739890_at) / Fold change /veh PRSS12 (11739890_at) / RFU BIN1 (11741810_x_at) / Fold change /veh BIN1 (11741810_x_at) / RFU WNT11 (11732464_a_at) / Fold change /veh WNT11 (11732464_a_at) / RFU C10orf10 (11716521_a_at) / Fold change /veh C10orf10 (11716521_a_at) / RFU C5orf56 (11738089_at) / Fold change /veh C5orf56 (11738089_at) / RFU CYB561 (11721691_x_at) / Fold change /veh CYB561 (11721691_x_at) / RFU ANKRD19P (11752326_a_at) / Fold change /veh ANKRD19P (11752326_a_at) / RFU OR2T12 /// OR2T33 /// OR2T8 (11738714_s_at) / Fold change /veh OR2T12 /// OR2T33 /// OR2T8 (11738714_s_at) / RFU VCAN (11748164_a_at) / Fold change /veh VCAN (11748164_a_at) / RFU JSRP1 (11732532_at) / Fold change /veh JSRP1 (11732532_at) / RFU KRTAP10-11 (11738290_x_at) / Fold change /veh KRTAP10-11 (11738290_x_at) / RFU MYO3A (11730013_a_at) / Fold change /veh MYO3A (11730013_a_at) / RFU EBF3 (11725865_a_at) / Fold change /veh EBF3 (11725865_a_at) / RFU CAMK2N1 (11719241_x_at) / Fold change /veh CAMK2N1 (11719241_x_at) / RFU C5orf56 (11738088_a_at) / Fold change /veh C5orf56 (11738088_a_at) / RFU OLFML3 (11715873_a_at) / Fold change /veh OLFML3 (11715873_a_at) / RFU LOC100653217 /// NTM (11731650_a_at) / Fold change /veh LOC100653217 /// NTM (11731650_a_at) / RFU MAPK11 (11762145_a_at) / Fold change /veh MAPK11 (11762145_a_at) / RFU FIZ1 (11724087_x_at) / Fold change /veh FIZ1 (11724087_x_at) / RFU OASL (11726364_x_at) / Fold change /veh OASL (11726364_x_at) / RFU SOX15 (11748057_x_at) / Fold change /veh SOX15 (11748057_x_at) / RFU CD79A (11719716_a_at) / Fold change /veh CD79A (11719716_a_at) / RFU HIST1H1D (11736915_at) / Fold change /veh HIST1H1D (11736915_at) / RFU CASKIN2 (11723855_a_at) / Fold change /veh CASKIN2 (11723855_a_at) / RFU LOC730098 (11760151_x_at) / Fold change /veh LOC730098 (11760151_x_at) / RFU OR4N2 (11742367_at) / Fold change /veh OR4N2 (11742367_at) / RFU PRRT2 (11749266_a_at) / Fold change /veh PRRT2 (11749266_a_at) / RFU SNX32 (11753110_a_at) / Fold change /veh SNX32 (11753110_a_at) / RFU CDHR5 (11726645_a_at) / Fold change /veh CDHR5 (11726645_a_at) / RFU RCAN1 (11760418_a_at) / Fold change /veh RCAN1 (11760418_a_at) / RFU FAM167A (11723789_a_at) / Fold change /veh FAM167A (11723789_a_at) / RFU FAM26E (11764081_at) / Fold change /veh FAM26E (11764081_at) / RFU ISYNA1 (11749810_s_at) / Fold change /veh ISYNA1 (11749810_s_at) / RFU ACY1 (11761880_at) / Fold change /veh ACY1 (11761880_at) / RFU 11764098_at / Fold change /veh 11764098_at / RFU SAMD14 (11745864_x_at) / Fold change /veh SAMD14 (11745864_x_at) / RFU NPB (11741838_a_at) / Fold change /veh NPB (11741838_a_at) / RFU TMPRSS6 (11731388_a_at) / Fold change /veh TMPRSS6 (11731388_a_at) / RFU KRTAP10-2 (11738614_at) / Fold change /veh KRTAP10-2 (11738614_at) / RFU ARHGAP8 /// PRR5-ARHGAP8 (11727945_x_at) / Fold change /veh ARHGAP8 /// PRR5-ARHGAP8 (11727945_x_at) / RFU KRTAP5-7 /// NADSYN1 (11734609_at) / Fold change /veh KRTAP5-7 /// NADSYN1 (11734609_at) / RFU RASL12 (11751679_a_at) / Fold change /veh RASL12 (11751679_a_at) / RFU CDKN2B (11736163_a_at) / Fold change /veh CDKN2B (11736163_a_at) / RFU PRF1 (11729649_at) / Fold change /veh PRF1 (11729649_at) / RFU, ZNF638 /// ZNF638-IT1 / Fold change vs veh, ZNF638 /// ZNF638-IT1 / RFU, PANK3 / Fold change vs veh, PANK3 / RFU, SH3YL1 / Fold change vs veh, SH3YL1 / RFU, ZEB2 / Fold change vs veh, ZEB2 / RFU, NRIP1 / Fold change vs veh, NRIP1 / RFU, PTTG1IP / Fold change vs veh, PTTG1IP / RFU, CAPN2 / Fold change vs veh, CAPN2 / RFU, MED14 / Fold change vs veh, MED14 / RFU, SNORA58 / Fold change vs veh, SNORA58 / RFU, C1orf63 / Fold change vs veh, C1orf63 / RFU, LRRFIP1 / Fold change vs veh, LRRFIP1 / RFU, NDUFAF7 / Fold change vs veh, NDUFAF7 / RFU, SLC12A2 / Fold change vs veh, SLC12A2 / RFU, IBTK / Fold change vs veh, IBTK / RFU, ESF1 / Fold change vs veh, ESF1 / Fold change vs veh, TMEM50B / RFU, TAOK1 / Fold change vs veh, TAOK1 / RFU, ACBD3 / Fold change vs veh, ACBD3 / RFU, TMA16 / Fold change vs veh, TMA16 / RFU, RWDD3 / Fold change vs veh, RWDD3 / RFU, BCAT1 / Fold change vs veh, BCAT1 / RFU, EDEM3 / Fold change vs veh, EDEM3 / RFU, TMEM33 / Fold change vs veh, TMEM33 / RFU, WDR75 / Fold change vs veh, WDR75 / RFU, AHCTF1 / Fold change vs veh, AHCTF1 / RFU, TFRC / Fold change vs veh, TFRC / RFU, ZDHHC17 / Fold change vs veh, ZDHHC17 / RFU, NOM1 / Fold change vs veh, NOM1 / RFU, ARL8B / Fold change vs veh, ARL8B / RFU, ZBTB11 / Fold change vs veh, ZBTB11 / RFU, TAMM41 / Fold change vs veh, TAMM41 / RFU, KIAA1704 /// LOC100996395 / Fold change vs veh, KIAA1704 /// LOC100996395 / RFU, ING1 / Fold change vs veh, ING1 / RFU, TRMT61B / Fold change vs veh, TRMT61B / RFU, FUBP3 / Fold change vs veh, FUBP3 / RFU, TP53 / Fold change vs veh, TP53 / RFU, TNKS2 / Fold change vs veh, TNKS2 / RFU, ZFP14 / Fold change vs veh, ZFP14 / RFU, ACTR2 / Fold change vs veh, ACTR2 / RFU, PPP3R1 / Fold change vs veh, PPP3R1 / RFU, PIK3R1 / Fold change vs veh, PIK3R1 / RFU, HNRNPA1 / Fold change vs veh, HNRNPA1 / RFU, RNF170 / Fold change vs veh, RNF170 / RFU, ZNF28 / Fold change vs veh, ZNF28 / RFU, RNGTT / Fold change vs veh, RNGTT / RFU, OGT / Fold change vs veh, OGT / RFU, BRD1 / Fold change vs veh, BRD1 / RFU, MARS / Fold change vs veh, MARS / RFU, ZNF655 / Fold change vs veh, ZNF655 / RFU, FAHD1 / Fold change vs veh, FAHD1 / RFU, BDP1 / Fold change vs veh, BDP1 / RFU, LRRCC1 / Fold change vs veh, LRRCC1 / RFU, ARID1A / Fold change vs veh, ARID1A / RFU, ZNF146 / Fold change vs veh, ZNF146 / RFU, ZNF330 / Fold change vs veh, ZNF330 / RFU, GPN3 / Fold change vs veh, GPN3 / RFU, C9orf123 / Fold change vs veh, C9orf123 / RFU, N4BP2L2 / Fold change vs veh, N4BP2L2 / RFU, ARFIP1 / Fold change vs veh, ARFIP1 / RFU, FAM179B / Fold change vs veh, FAM179B / RFU, BCL10 / Fold change vs veh, BCL10 / RFU, UHRF1BP1L / Fold change vs veh, UHRF1BP1L / RFU, BET1 / Fold change vs veh, BET1 / RFU, CNOT2 / Fold change vs veh, CNOT2 / RFU, ZNF268 / Fold change vs veh, ZNF268 / Fold change vs veh, ZNF507 / RFU, DGCR2 / Fold change vs veh, DGCR2 / RFU, WDSUB1 / Fold change vs veh, WDSUB1 / Fold change vs veh, HSP90B1 /// MIR3652 / RFU, ADSS / Fold change vs veh, ADSS / RFU, GK / Fold change vs veh, GK / RFU, ZNF148 / Fold change vs veh, ZNF148 / RFU, TAF9 / Fold change vs veh, TAF9 / RFU, SLC1A5 / Fold change vs veh, SLC1A5 / RFU, SLMO2 / Fold change vs veh, SLMO2 / RFU, ABCC4 / Fold change vs veh, ABCC4 / RFU, LOC101060439 /// RAP1B / Fold change vs veh, LOC101060439 /// RAP1B / RFU, RFX7 / Fold change vs veh, RFX7 / RFU, GTPBP10 / Fold change vs veh, GTPBP10 / RFU, CNEP1R1 / Fold change vs veh, CNEP1R1 / RFU, BIVM-ERCC5 /// ERCC5 / Fold change vs veh, BIVM-ERCC5 /// ERCC5 / RFU, ILF3 / Fold change vs veh, ILF3 / RFU 11762660_at / Fold change /veh 11762660_at / RFU VCAN (11757783_s_at) / Fold change /veh VCAN (11757783_s_at) / RFU DDX43 (11728927_at) / Fold change /veh DDX43 (11728927_at) / RFU KRT8 (11758188_x_at) / Fold change /veh KRT8 (11758188_x_at) / RFU NKD1 (11759106_at) / Fold change /veh NKD1 (11759106_at) / RFU SRD5A1 (11742802_a_at) / Fold change /veh SRD5A1 (11742802_a_at) / RFU TPSAB1 /// TPSB2 (11721975_s_at) / Fold change /veh TPSAB1 /// TPSB2 (11721975_s_at) / RFU GSTM3 (11746129_a_at) / Fold change /veh GSTM3 (11746129_a_at) / RFU IL23R (11737362_x_at) / Fold change /veh IL23R (11737362_x_at) / RFU TMEM51 (11727254_a_at) / Fold change /veh TMEM51 (11727254_a_at) / RFU PIWIL2 (11732686_x_at) / Fold change /veh PIWIL2 (11732686_x_at) / RFU ORM1 (11744905_x_at) / Fold change /veh ORM1 (11744905_x_at) / RFU CCDC152 (11743942_at) / Fold change /veh CCDC152 (11743942_at) / RFU ECM1 (11717891_a_at) / Fold change /veh ECM1 (11717891_a_at) / RFU IL23R (11748794_a_at) / Fold change /veh IL23R (11748794_a_at) / RFU TNFAIP8L3 (11732012_x_at) / Fold change /veh TNFAIP8L3 (11732012_x_at) / RFU MBOAT4 (11741988_at) / Fold change /veh MBOAT4 (11741988_at) / RFU 11764193_at / Fold change /veh 11764193_at / RFU TMEM53 (11763286_at) / Fold change /veh TMEM53 (11763286_at) / RFU MAGEB2 (11727129_at) / Fold change /veh MAGEB2 (11727129_at) / RFU TMEM200A (11744735_a_at) / Fold change /veh TMEM200A (11744735_a_at) / RFU CCDC152 (11751479_a_at) / Fold change /veh CCDC152 (11751479_a_at) / RFU FAM211A (11726209_a_at) / Fold change /veh FAM211A (11726209_a_at) / RFU RGS16 (11746705_a_at) / Fold change /veh RGS16 (11746705_a_at) / RFU VCAN (11755009_s_at) / Fold change /veh VCAN (11755009_s_at) / RFU RHOB (11743442_s_at) / Fold change /veh RHOB (11743442_s_at) / RFU RGS16 (11720943_a_at) / Fold change /veh RGS16 (11720943_a_at) / RFU RGS16 (11720944_at) / Fold change /veh RGS16 (11720944_at) / RFU, VPS4B / Fold change vs veh, VPS4B / RFU, CREB1 / Fold change vs veh, CREB1 / RFU, DNAJC13 / Fold change vs veh, DNAJC13 / RFU, GNAQ / Fold change vs veh, GNAQ / RFU, CDK5R1 / Fold change vs veh, CDK5R1 / RFU, ZRANB3 / Fold change vs veh, ZRANB3 / RFU, CUL4A / Fold change vs veh, CUL4A / RFU, CCNY / Fold change vs veh, CCNY / RFU, UFL1 / Fold change vs veh, UFL1 / RFU, COG3 / Fold change vs veh, COG3 / RFU, DIAPH2 / Fold change vs veh, DIAPH2 / RFU, SKA2 / Fold change vs veh, SKA2 / RFU, AFF3 / Fold change vs veh, AFF3 / RFU, LMF1 / Fold change vs veh, LMF1 / RFU, IPO11 / Fold change vs veh, IPO11 / RFU, DFFB / Fold change vs veh, DFFB / RFU, FOXP1 / Fold change vs veh, FOXP1 / RFU, CARD8 / Fold change vs veh, CARD8 / RFU, STRN3 / Fold change vs veh, STRN3 / RFU, ADK / Fold change vs veh, ADK / RFU, RASSF2 / Fold change vs veh, RASSF2 / RFU, WIPF1 / Fold change vs veh, WIPF1 / RFU, LARP1B / Fold change vs veh, LARP1B / RFU, RASA1 / Fold change vs veh, RASA1 / RFU, RB1 / Fold change vs veh, RB1 / RFU, PPFIA1 / Fold change vs veh, PPFIA1 / RFU, MAT2A / Fold change vs veh, MAT2A / RFU, CCT5 / Fold change vs veh, CCT5 / RFU, WDR92 / Fold change vs veh, WDR92 / RFU, CUX1 / Fold change vs veh, CUX1 / RFU, TTC7A / Fold change vs veh, TTC7A / RFU, TMEM135 / Fold change vs veh, TMEM135 / RFU, DEPTOR / Fold change vs veh, DEPTOR / RFU, CPM / Fold change vs veh, CPM / RFU, DNAJB6 / Fold change vs veh, DNAJB6 / RFU, CACNA2D3 / Fold change vs veh, CACNA2D3 / RFU, DTX4 / Fold change vs veh, DTX4 / RFU, TFCP2 / Fold change vs veh, TFCP2 / RFU, GMCL1 /// GMCL1P1 / Fold change vs veh, GMCL1 /// GMCL1P1 / RFU, AEBP2 / Fold change vs veh, AEBP2 / RFU, SNHG1 /// SNORD22 /// SNORD25 /// SNORD26 /// SNORD27 /// SNORD28 /// SNORD29 /// SNORD31 / Fold change vs veh, SNHG1 /// SNORD22 /// SNORD25 /// SNORD26 /// SNORD27 /// SNORD28 /// SNORD29 /// SNORD31 / Fold change (Aza/veh), C12orf56 (ProbeSet 11735607_a_at) / Fold change (ACY-1035/veh), C12orf56 (ProbeSet 11735607_a_at) / Fold change (Aza/veh), FGFR1OP (ProbeSet 11751329_s_at) / Fold change (ACY-1035/veh), FGFR1OP (ProbeSet 11751329_s_at) / Fold change (Aza/veh), VPS36 (ProbeSet 11739960_a_at) / Fold change (ACY-1035/veh), VPS36 (ProbeSet 11739960_a_at) / RFU SYPL1 (11715823_x_at) / Fold change /veh SYPL1 (11715823_x_at) / RFU IGFBP7 (11715501_s_at) / Fold change /veh IGFBP7 (11715501_s_at) / RFU REEP3 (11722064_at) / Fold change /veh REEP3 (11722064_at) / RFU IGLL1 (11728026_x_at) / Fold change /veh IGLL1 (11728026_x_at): dose or concentration left out as unconfirmed
Conditions: MV-4-11 cells, 48 hours

## Nc1ncn([C@@H]2O[C@H](CO)[C@@H](O)[C@H]2O)c(=O)n1 [azacitidine]
  Fold change /veh SRD5A1 (11742802_a_at): 1.21

Source: publication PMC5218480 (PLoS ONE, 2017)
